Strand notation (5' to 3'): a small letter for the sugar, then the base; units joined by * are phosphorothioate-linked, units joined directly phosphodiester-linked; [ ] holds rarer units or linkages, { } end groups; capitals alone tell only the bases. m = 2'-O-methyl; r = 2'-OH (RNA)
Key:
[1] = tested on: TTR; experiment: TTR editing in primary human hepatocytes transfected with Spy Cas9 mRNA and dgRNAs (Table 9); format: cell-based; settings: dgRNA co-transfected with Spy Cas9 mRNA (SEQ ID NO:2)
In short: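 PHH sequentially lipofected with Spy Cas9 mRNA (100 ng), then crRNA plus tracrRNA (25 nM each) dual-guide lipoplex. Cells harvested 24, 48 or 72 h post-transfection; TTR target amplicons sequenced on Illumina MiSeq, editing given as percent reads with indels or substitutions over total reads.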

[2] = tested on: off-target genomic sites; experiment: Off-target oligo insertion based assay in HEK293_Cas9 cells, dgRNAs and sgRNAs (Tables 23, 24); format: cell-based, human; settings: Table 23; TTR dgRNAs in HekCas9 cells, oligo insertion based assay
Procedure: An oligo insertion based assay (See, e.g., Tsai et al., Nature Biotechnology 33, 187-197; 2015) was used to determine potential off-target genomic sites cleaved by Cas9 targeting TTR. Forty-five dgRNAs from Table 1 (and two control guides with known off-target profiles) were screened in the HEK293 Cas9 cells. The human embryonic kidney adenocarcinoma cell line HEK293 constitutively expressing Spy Cas9 (“HEK293_Cas9”) was cultured in DMEM media supplemented with 10% fetal bovine serum and 500 μg/ml G418. Cells were plated at a density of 30,000 cells/well in a 96-well plate 24 hours prior to transfection. Cells were transfected with Lipofectamine RNAiMAX (ThermoFisher, Cat. 13778150) per the manufacturer's protocol. Cells were transfected with a lipoplex containing individual crRNA (15 nM), trRNA (15 nM), and donor oligo with (10 nM) Lipofectamine RNAiMAX (0.3 μL/well) and OptiMem. Cells were lysed 24 hours post transfection and genomic DNA was extracting using Zymo's Quick gDNA 96 Extraction kit (catalog #D3012) following the manufacturer's recommended protocol. The gDNA was quantified using the Qubit High Sensitivity dsDNA kit (Life Technologies). Libraries were prepared per the previously described method in Tsai et al, 2015 with minor modifications. Sequencing was performed on Illumina's MiSeq and HiSeq 2500. The assay identified potential off-target sites for some of the crRNAs which are plotted in FIG. 2.
Additionally, a subset of the guides was assessed for off-target potential as modified sgRNAs in the Hek_Cas9 cells via the oligo based insertion method described above. The off-target results were plotted in FIG. 4.

[3] = tested on: TTR; experiment: TTR editing in HepG2 cells transfected with Spy Cas9 mRNA and dgRNAs (Table 6); format: cell-based, human; settings: HepG2 cells co-transfected with Spy Cas9 mRNA (SEQ ID NO:2) and dgRNAs
In short: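 Percent editing is the share of sequencing reads at the TTR target locus that carry insertions, deletions or substitutions, measured by Illumina amplicon sequencing aligned to hg38. Samples came from HepG2 cells lipofected first with 100 ng Cas9 mRNA and then with dual-guide RNA (25 nM crRNA/tracer), collected 24–72 h later.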

[4] = tested on: TTR; experiment: TTR editing in primary human hepatocytes electroporated with Spy Cas9 protein loaded with dgRNAs (Table 7); format: cell-based; settings: dgRNA electroporated with Spy Cas9 protein (RNP)
In short: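 Editing efficiency is the fraction of NGS reads carrying insertions, deletions or substitutions at the TTR target, measured on MiSeq amplicons from DNA harvested 24, 48 or 72 h post-delivery. Cas9–dgRNA ribonucleoprotein was nucleofected (P3 buffer, EX-147) into primary human or cyno hepatocytes.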

[5] = tested on: TTR; experiment: TTR editing in primary human hepatocytes transfected with Spy Cas9 protein (RNP) loaded with dgRNAs (Table 8); format: cell-based; settings: dgRNA transfected with Spy Cas9 protein (RNP)
In short: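 Primary human hepatocytes were lipofected (RNAiMAX) with RNP of Spy Cas9 (10 nM) plus pre-annealed crRNA (10 nM) and trRNA (10 nM) and harvested 24, 48 or 72 h later. Target-site amplicons were sequenced on Illumina MiSeq and aligned to hg38; percent editing = reads with indels or substitutions over total reads.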

[6] = tested on: TTR; experiment: TTR editing in primary cyno hepatocytes electroporated with Spy Cas9 protein and sgRNAs (Tables 14, 15); format: cell-based, cynomolgus monkey; settings: Table 15; primary cyno hepatocytes electroporated with Spy Cas9 protein (RNP) and cyno specific sgRNAs
Procedure: Primary liver hepatocytes. Primary human liver hepatocytes (PHH) and primary cynomolgus liver hepatocytes (PCH) (Gibco) were cultured per the manufacturer's protocol (Invitrogen, protocol 11.28.2012). In brief, the cells were thawed and resuspended in hepatocyte thawing medium with supplements (Gibco, Cat. CM7000) followed by centrifugation at 100 g for 10 minutes for human and 80 g for 4 minutes for cyno. The supernatant was discarded and the pelleted cells resuspended in hepatocyte plating medium plus supplement pack (Invitrogen, Cat. A1217601 and CM3000). Cells were counted and plated on Bio-coat collagen I coated 96-well plates (ThermoFisher, Cat. 877272) at a density of 33,000 cells/well for human or 60,000 cells/well for cyno (or 65,000 cells/well when assaying effects on TTR protein, described further below). Plated cells were allowed to settle and adhere for 6 or 24 hours in a tissue culture incubator at 37° C. and 5% CO2 atmosphere. After incubation cells were checked for monolayer formation and media was replaced with hepatocyte culture medium with serum-free supplement pack (Invitrogen, Cat. A1217601 and CM4000).
[…] formation was performed prior to electroporation or transfection of Spy Cas9 protein loaded with guide RNAs (RNPs) onto cells. For dual guide (dgRNAs), individual crRNA and trRNA was pre-annealed by mixing equivalent amounts of reagent and incubating at 95° C. for 2 min and cooling to room temperature. Single guide (sgRNAs) were boiled at 95° C. for 2 min and cooling to room temperature. The boiled dgRNA or sgRNA was incubated with Spy Cas9 protein in Optimem for 10 minutes at room temperature to form a ribonucleoprotein (RNP) complex.
For RNP electroporation into primary human and cyno hepatocytes, the cells are thawed and resuspended in Lonza electroporation Primary Cell P3 buffer at a concentration of 2500 cells per μL for human hepatocytes and 3500 cells per μL for cyno hepatocytes. A volume of 20 μL of resuspended cells and 5 μL of RNP are mixed together per guide. 20 μL of the mixture is placed into a Lonza electroporation plate. The cells were electroporated using the Lonza nucleofector with the preset protocol EX-147. Post electroporation, the cells are transferred into a Biocoat plate containing pre-warmed maintenance media and placed in a tissue culture incubator at 37° C. and 5% CO2.
Transfected cells were harvested post-transfection at 24, 48, or 72 hours. The genomic DNA was extracted from each well of a 96-well plate using 50 μL/well BuccalAmp DNA Extraction solution (Epicentre, Cat. QE09050) per manufacturer's protocol. All DNA samples were subjected to PCR and subsequent NGS analyses, as described herein.
To quantitatively determine the efficiency of editing at the target location in the genome, sequencing was utilized to identify the presence of insertions and deletions introduced by gene editing.
Primers were designed around the target site within the gene of interest (e.g. TTR), and the genomic area of interest was amplified.
Additional PCR was performed per the manufacturer's protocols (Illumina) to add chemistry for sequencing. The amplicons were sequenced on an Illumina MiSeq instrument. The reads were aligned to a reference genome (e.g., the human reference genome (hg38), the cynomologus reference genome (mf5), the rat reference genome (rn6), or the mouse reference genome (mm10)) after eliminating those having low quality scores. The resulting files containing the reads were mapped to the reference genome (BAM files), where reads that overlapped the target region of interest were selected and the number of wild type reads versus the number of reads which contain an insertion, substitution, or deletion was calculated.
The editing percentage (e.g., the “editing efficiency” or “percent editing” or “indel frequency”) is defined as the total number of sequence reads with insertions/deletions (“indels”) or substitutions over the total number of sequence reads, including wild type. […]

| Molecule | Avg % Deletion [1] [%] | Avg % Edit [1] [%] | Avg % Insert [1] [%] | # Sites (off-target integration sites detected) [2] | Avg % Deletion [3] [%] | Avg % Edit [3] [%] | Avg % Insert [3] [%] | Avg % Deletion [4] [%] | Avg % Edit [4] [%] | Avg % Insert [4] [%] | Avg % Deletion [5] [%] | Avg % Edit [5] [%] | Avg % Insert [5] [%] | Avg % Deletion [6] [%] | Avg % Edit [6] [%] | Avg % Insert [6] [%] |
| --- | --- | --- | --- | --- | --- | --- | --- | --- | --- | --- | --- | --- | --- | --- | --- | --- |
| UCACAGAAACACUCACCGUA (tested as dual guide RNA, chemistry not given here) [CR005300] | 3.97 | 31.53 | 27.60 | 0 | 11.15 | 64.34 | 53.20 | 4.10 | 57.47 | 53.47 | 3.61 | 57.23 | 53.62 | – | – | – |
| UCCACUCAUUCUUGGCAGGA (tested as dual guide RNA, chemistry not given here) [CR005298] | 11.60 | 15.70 | 4.13 | 0 | 21.36 | 42.65 | 21.29 | 17.57 | 39.90 | 22.37 | 10.95 | 32.07 | 21.12 | – | – | – |
| G000507: TTR Cyno specific sgRNA modified sequence, SEQ ID No. 119; guide sequence of CR005367 (nucleic acid) guide: mC*mC*mA*rGrUrCrCrArGrCrGrArGrGrCrArGrArGrGrGrUrUrUrUrArGrAmGmCmUmAmGmAmAmAmUmAmGmCrArArGrUrUrArArArArUrArArGrGrCrUrArGrUrCrCrGrUrUrArUrCrAmAmCmUmUmGmAmAmAmAmAmGmUmGmGmCmAmCmCmGmAmGmUmCmGmGmUmGmCmU*mU*mU*mU | – | – | – | – | – | – | – | – | – | – | – | – | – | 4.60 | 71.17 | 67.03 |
